According to US6737383B1, “Herbicidal oxadiazolidines” (priority 1999, dated 2004):

Experiments:
bedstraw = assay: Test B pre/postemergence bedstraw; type: in vivo, Galium aparine
Method in brief: (§1)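 Response is a visual 0-to-10 score relative to untreated plants, where 0 means no effect and 10 means complete control, taken twelve to sixteen days after application. Treatments went onto soil at planting and onto foliage of 1- to 4-leaf plants, using a surfactant-containing non-phytotoxic solvent.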

blackgrass = assay: Test B pre/postemergence blackgrass; type: in vivo, Alopecurus myosuroides
Method in brief: as §1

surinam grass = assay: Test B pre/postemergence surinam grass; type: in vivo, Brachiaria decumbens
Method in brief: as §1

cocklebur = assay: Test B pre/postemergence cocklebur; type: in vivo, Xanthium strumarium
Method in brief: as §1

corn = assay: Test B pre/postemergence corn; type: in vivo, Zea mays
Method in brief: as §1

crabgrass = assay: Test B pre/postemergence crabgrass; type: in vivo, Digitaria sanguinalis
Method in brief: as §1

giant foxtail = assay: Test B pre/postemergence giant foxtail; type: in vivo, Setaria faberii
Method in brief: as §1

morningglory = assay: Test B pre/postemergence morningglory; type: in vivo, Ipomoea hederacea
Method in brief: as §1

pigweed = assay: Test B pre/postemergence pigweed; type: in vivo, Amaranthus retroflexus
Method in brief: as §1

rape = assay: Test B pre/postemergence rape; type: in vivo, Brassica napus
Method in brief: as §1

soybean = assay: Test B pre/postemergence soybean; type: in vivo, Glycine max
Method in brief: as §1

sugar beet = assay: Test B pre/postemergence sugar beet; type: in vivo, Beta vulgaris
Method in brief: as §1

velvetleaf = assay: Test B pre/postemergence velvetleaf; type: in vivo, Abutilon theophrasti
Method in brief: as §1

wheat = assay: Test B pre/postemergence wheat; type: in vivo, Triticum aestivum
Method in brief: as §1

wild oat = assay: Test B pre/postemergence wild oat; type: in vivo, Avena fatua
Method in brief: as §1

purple nutsedge = assay: Test B pre/postemergence purple nutsedge; type: in vivo, Cyperus rotundus; conditions: Postemergence; for Nutsedge plant response rating: 10 is complete control; for Plant response rating, Nutsedge: scale of 0 to 10 where 0 is no effect and 10 is complete control
Method in brief: as §1

[1] = Postemergence, Rate 125 g/ha, scale 0 to 10, 0 is no effect, 10 is complete control
[2] = Postemergence, Rate 500 g/ha, scale of 0 to 10 where 0 is no effect and 10 is complete control
[3] = Preemergence, Rate 62 g/ha, scale 0 to 10 (0 no effect, 10 complete control)
[4] = Preemergence, Rate 125 g/ha, scale 0 to 10, 0 is no effect, 10 is complete control
[5] = Preemergence, Rate 500 g/ha, scale of 0 to 10 where 0 is no effect and 10 is complete control
[6] = Rate 250 g/ha, Postemergence, scale of 0 to 10 where 0 is no effect and 10 is complete control
[7] = Postemergence, Rate 62 g/ha, scale of 0 to 10, 0 is no effect, 10 is complete control

CC(C)N(C(=O)n1oc(=O)n(CCCF)c1=O)c1ccccc1 [Compound 559]
Bedstraw plant response rating (bedstraw; [1]): 0 | Plant response rating, Bedstraw (bedstraw; [2]): 4 | Bedstraw plant response rating (bedstraw; [3]): 0 | Bedstraw plant response rating (bedstraw; [4]): 0 | Bedstraw plant response rating (0 to 10 scale) (bedstraw; Preemergence, Rate 250 g/ha): 0 | Bedstraw plant response rating (bedstraw; [5]): 0 | Plant response rating, Bedstraw (bedstraw; [6]): 0 | Blackgrass plant response rating (blackgrass; [7]): 7 | Blackgrass plant response rating (blackgrass; [1]): 7 | Plant response rating, Blackgrass (blackgrass; [2]): 7 | Blackgrass plant response rating (blackgrass; [3]): 9 | Blackgrass plant response rating (blackgrass; [4]): 10 | Blackgrass plant response rating (0 to 10 scale) (blackgrass; Preemergence, Rate 250 g/ha): 10 | Blackgrass plant response rating (blackgrass; [5]): 10 | Plant response rating, Blackgrass (blackgrass; [6]): 7 | B. signalgrass plant response rating (surinam grass; [7]): 4 | B. signalgrass plant response rating (surinam grass; [1]): 9 | Plant response rating, B. signalgrass (surinam grass; [2]): 9 | B. signalgrass plant response rating (surinam grass; [3]): 8 | B. signalgrass plant response rating (surinam grass; [4]): 10 | B. signalgrass plant response rating (0 to 10 scale, 0 is no effect, 10 is complete control) (surinam grass; Preemergence, Rate 250 g/ha): 9 | B. signalgrass plant response rating (surinam grass; [5]): 9 | Plant response rating, B. signalgrass (surinam grass; [6]): 9 | Cocklebur plant response rating (cocklebur; [7]): 0 | Cocklebur plant response rating (cocklebur; [1]): 0 | Plant response rating, Cocklebur (cocklebur; [2]): 2 | Cocklebur plant response rating (cocklebur; [3]): 0 | Cocklebur plant response rating (cocklebur; [4]): 0 | Cocklebur plant response rating (0 to 10 scale) (cocklebur; Preemergence, Rate 250 g/ha): 0 | Cocklebur plant response rating (cocklebur; [5]): 2 | Plant response rating, Cocklebur (cocklebur; [6]): 0 | Corn plant response rating (corn; [7]): 0 | Corn plant response rating (corn; [1]): 0 | Plant response rating, Corn (corn; [2]): 7 | Corn plant response rating (corn; [3]): 2 | Corn plant response rating (corn; [4]): 3 | Corn plant response rating (0 to 10 scale) (corn; Preemergence, Rate 250 g/ha): 6 | Corn plant response rating (corn; [5]): 6 | Plant response rating, Corn (corn; [6]): 6 | Crabgrass plant response rating (crabgrass; [7]): 5 | Crabgrass plant response rating (crabgrass; [1]): 4 | Plant response rating, Crabgrass (crabgrass; [2]): 9 | Crabgrass plant response rating (crabgrass; [3]): 9 | Crabgrass plant response rating (crabgrass; [4]): 10 | Crabgrass plant response rating (0 to 10 scale) (crabgrass; Preemergence, Rate 250 g/ha): 10 | Crabgrass plant response rating (crabgrass; [5]): 10 | Plant response rating, Crabgrass (crabgrass; [6]): 9 | Giant foxtail plant response rating (giant foxtail; [7]): 9 | Giant foxtail plant response rating (giant foxtail; [1]): 9 | Plant response rating, Giant foxtail (giant foxtail; [2]): 9 | Giant foxtail plant response rating (giant foxtail; [3]): 10 | Giant foxtail plant response rating (giant foxtail; [4]): 10 | Giant foxtail plant response rating (0 to 10 scale) (giant foxtail; Preemergence, Rate 250 g/ha): 10 | Giant foxtail plant response rating (giant foxtail; [5]): 10 | Plant response rating, Giant foxtail (giant foxtail; [6]): 9 | Morningglory plant response rating (morningglory; [7]): 9 | Morningglory plant response rating (morningglory; [1]): 10 | Plant response rating, Morningglory (morningglory; [2]): 10 | Morningglory plant response rating (morningglory; [3]): 0 | Morningglory plant response rating (morningglory; [4]): 2 | Morningglory plant response rating (0 to 10 scale) (morningglory; Preemergence, Rate 250 g/ha): 4 | Morningglory plant response rating (morningglory; [5]): 8 | Plant response rating, Morningglory (morningglory; [6]): 9 | Redroot pigweed plant response rating (pigweed; [7]): 0 | Plant response rating, Redroot pigweed (pigweed; [2]): 8 | Redroot pigweed plant response rating (pigweed; [3]): 7 | Redroot pigweed plant response rating (pigweed; [4]): 10 | Redroot pigweed plant response rating (0 to 10 scale) (pigweed; Preemergence, Rate 250 g/ha): 10 | Redroot pigweed plant response rating (pigweed; [5]): 10 | Plant response rating, Redroot pigweed (pigweed; [6]): 3 | Rape plant response rating (rape; [7]): 0 | Rape plant response rating (rape; [1]): 0 | Plant response rating, Rape (rape; [2]): 2 | Rape plant response rating (rape; [3]): 7 | Rape plant response rating (rape; [4]): 9 | Rape plant response rating (0 to 10 scale) (rape; Preemergence, Rate 250 g/ha): 10 | Rape plant response rating (rape; [5]): 10 | Plant response rating, Rape (rape; [6]): 2 | Soybean plant response rating (soybean; [7]): 4 | Plant response rating, Soybean (soybean; [2]): 6 | Soybean plant response rating (soybean; [3]): 0 | Soybean plant response rating (soybean; [4]): 2 | Soybean plant response rating (0 to 10 scale) (soybean; Preemergence, Rate 250 g/ha): 3 | Soybean plant response rating (soybean; [5]): 3 | Plant response rating, Soybean (soybean; [6]): 5 | Sugarbeets plant response rating (sugar beet; [7]): 0 | Plant response rating, Sugarbeets (sugar beet; [2]): 8 | Sugarbeets plant response rating (sugar beet; [3]): 3 | Sugarbeets plant response rating (sugar beet; [4]): 6 | Sugarbeets plant response rating (0 to 10 scale) (sugar beet; Preemergence, Rate 250 g/ha): 9 | Sugarbeets plant response rating (sugar beet; [5]): 9 | Plant response rating, Sugarbeets (sugar beet; [6]): 2 | Velvetleaf plant response rating (velvetleaf; [7]): 0 | Plant response rating, Velvetleaf (velvetleaf; [2]): 3 | Velvetleaf plant response rating (velvetleaf; [3]): 3 | Velvetleaf plant response rating (velvetleaf; [4]): 4 | Velvetleaf plant response rating (0 to 10 scale) (velvetleaf; Preemergence, Rate 250 g/ha): 6 | Velvetleaf plant response rating (velvetleaf; [5]): 9 | Plant response rating, Velvetleaf (velvetleaf; [6]): 2 | Wheat plant response rating (wheat; [7]): 2 | Plant response rating, Wheat (wheat; [2]): 3 | Wheat plant response rating (wheat; [3]): 3 | Wheat plant response rating (wheat; [4]): 8 | Wheat plant response rating (0 to 10 scale) (wheat; Preemergence, Rate 250 g/ha): 9 | Wheat plant response rating (wheat; [5]): 9 | Plant response rating, Wheat (wheat; [6]): 2 | Wild oats plant response rating (wild oat; [7]): 2 | Plant response rating, Wild oats (wild oat; [2]): 5 | Wild oats plant response rating (wild oat; [4]): 9 | Wild oats plant response rating (0 to 10 scale) (wild oat; Preemergence, Rate 250 g/ha): 9 | Wild oats plant response rating (wild oat; [5]): 9 | Plant response rating, Wild oats (wild oat; [6]): 4 | Nutsedge plant response rating (purple nutsedge; Rate 62 g/ha, scale of 0 to 10, 0 is no effect): 0 | Nutsedge plant response rating (purple nutsedge; Rate 125 g/ha, scale 0 to 10, 0 is no effect): 0 | Plant response rating, Nutsedge (purple nutsedge; Rate 500 g/ha): 2 | Plant response rating, Nutsedge (purple nutsedge; Rate 250 g/ha): 2
